Measurements published in the NIST ThermoML archive (doi:10.1021/acs.jced.7b00106).
Numbers after ± are expanded uncertainties.

Settings: Hot wire method

FC(F)(F)/C=C/Cl [(E)-1-chloro-3,3,3-trifluoroprop-1-ene]
Settings | thermal conductivity [W/m/K]
422.34 K, 6615 kPa, Liquid | 0.05507 ± 0.0016
422.35 K, 1562 kPa, Fluid (supercritical or subcritical phases) | 0.02132 ± 0.0061
422.37 K, 5710 kPa, Liquid | 0.054 ± 0.0022
422.38 K, 5711 kPa, Liquid | 0.05406 ± 0.0015
422.4 K, 4942 kPa, Liquid | 0.05308 ± 0.0016
422.42 K, 802 kPa, Fluid (supercritical or subcritical phases) | 0.02084 ± 0.0013
422.42 K, 1401 kPa, Fluid (supercritical or subcritical phases) | 0.0211 ± 0.0043
422.42 K, 4947 kPa, Liquid | 0.05316 ± 0.0045
422.43 K, 1403 kPa, Fluid (supercritical or subcritical phases) | 0.02113 ± 0.0024
422.44 K, 4300 kPa, Liquid | 0.05228 ± 0.0033
422.44 K, 4307 kPa, Liquid | 0.05231 ± 0.0024
422.45 K, 3760 kPa, Liquid | 0.05158 ± 0.0038
422.45 K, 3761 kPa, Liquid | 0.05162 ± 0.0038
422.48 K, 2616 kPa, Liquid | 0.05022 ± 0.0044
422.48 K, 2911 kPa, Liquid | 0.05073 ± 0.0075
422.48 K, 3308 kPa, Liquid | 0.05108 ± 0.0047
422.48 K, 3310 kPa, Liquid | 0.05105 ± 0.0047
422.49 K, 1222 kPa, Fluid (supercritical or subcritical phases) | 0.02095 ± 0.003
422.49 K, 2914 kPa, Liquid | 0.05068 ± 0.0048
422.5 K, 1220 kPa, Fluid (supercritical or subcritical phases) | 0.02096 ± 0.0031
422.52 K, 28114 kPa, Liquid | 0.07065 ± 0.0043
422.54 K, 8781 kPa, Liquid | 0.05725 ± 0.0012
422.54 K, 28086 kPa, Liquid | 0.07055 ± 0.0034
422.55 K, 7612 kPa, Liquid | 0.0561 ± 0.0029
422.55 K, 8782 kPa, Liquid | 0.05725 ± 0.0013
422.56 K, 28121 kPa, Liquid | 0.0704 ± 0.0019
422.57 K, 1031 kPa, Fluid (supercritical or subcritical phases) | 0.02086 ± 0.0028
422.57 K, 1032 kPa, Fluid (supercritical or subcritical phases) | 0.02088 ± 0.003
422.57 K, 6610 kPa, Liquid | 0.0551 ± 0.00065
422.58 K, 6615 kPa, Liquid | 0.05511 ± 0.0015
422.58 K, 28093 kPa, Liquid | 0.07032 ± 0.0027
422.61 K, 5714 kPa, Liquid | 0.05406 ± 0.00091
422.62 K, 5709 kPa, Liquid | 0.05406 ± 0.0009
422.66 K, 4943 kPa, Liquid | 0.05316 ± 0.0023
422.66 K, 4946 kPa, Liquid | 0.05333 ± 0.0022
422.67 K, 800 kPa, Fluid (supercritical or subcritical phases) | 0.02086 ± 0.0011
422.69 K, 11667 kPa, Liquid | 0.05975 ± 0.00074
422.7 K, 4304 kPa, Liquid | 0.05243 ± 0.0027
422.7 K, 4305 kPa, Liquid | 0.05239 ± 0.0037
422.71 K, 3758 kPa, Liquid | 0.05174 ± 0.0045
422.71 K, 3761 kPa, Liquid | 0.05177 ± 0.0048
422.72 K, 20061 kPa, Liquid | 0.0657 ± 0.00077
422.73 K, 3307 kPa, Liquid | 0.0512 ± 0.0041
422.73 K, 3310 kPa, Liquid | 0.05125 ± 0.0067
422.74 K, 10145 kPa, Liquid | 0.0585 ± 0.0023
422.78 K, 17484 kPa, Liquid | 0.06408 ± 0.00072
422.79 K, 8779 kPa, Liquid | 0.05724 ± 0.00068
422.79 K, 8783 kPa, Liquid | 0.05727 ± 0.00068
422.79 K, 17485 kPa, Liquid | 0.06404 ± 0.00093
422.79 K, 25690 kPa, Liquid | 0.06898 ± 0.001
422.8 K, 7613 kPa, Liquid | 0.05618 ± 0.0015
422.8 K, 7618 kPa, Liquid | 0.05616 ± 0.0015
422.8 K, 25708 kPa, Liquid | 0.06904 ± 0.0028
422.8 K, 28111 kPa, Liquid | 0.07046 ± 0.004
422.8 K, 28112 kPa, Liquid | 0.07051 ± 0.0039
422.82 K, 15379 kPa, Liquid | 0.06258 ± 0.00071
422.83 K, 6608 kPa, Liquid | 0.05508 ± 0.001
422.83 K, 6614 kPa, Liquid | 0.05515 ± 0.001
422.83 K, 28116 kPa, Liquid | 0.07034 ± 0.00099
422.84 K, 15382 kPa, Liquid | 0.06256 ± 0.0013
422.84 K, 28116 kPa, Liquid | 0.07035 ± 0.00099
422.86 K, 22725 kPa, Liquid | 0.06729 ± 0.0073
422.87 K, 5712 kPa, Liquid | 0.0541 ± 0.0021
422.87 K, 5716 kPa, Liquid | 0.05417 ± 0.0021
422.87 K, 22727 kPa, Liquid | 0.06729 ± 0.011
422.89 K, 13389 kPa, Liquid | 0.06114 ± 0.0007
422.89 K, 13396 kPa, Liquid | 0.0611 ± 0.0019
422.92 K, 4948 kPa, Liquid | 0.05329 ± 0.00074
422.93 K, 4948 kPa, Liquid | 0.05326 ± 0.00074
422.93 K, 11677 kPa, Liquid | 0.05979 ± 0.00072
422.94 K, 11666 kPa, Liquid | 0.05974 ± 0.00068
422.96 K, 4303 kPa, Liquid | 0.05247 ± 0.0015
422.96 K, 4305 kPa, Liquid | 0.05253 ± 0.0032
422.96 K, 20042 kPa, Liquid | 0.06564 ± 0.0037
422.97 K, 20051 kPa, Liquid | 0.06568 ± 0.0014
423 K, 10141 kPa, Liquid | 0.05847 ± 0.00068
423 K, 10146 kPa, Liquid | 0.05853 ± 0.00068
423 K, 25690 kPa, Liquid | 0.06899 ± 0.00079
423.02 K, 28110 kPa, Liquid | 0.07042 ± 0.0022
423.03 K, 28120 kPa, Liquid | 0.07037 ± 0.00086
423.04 K, 17472 kPa, Liquid | 0.06399 ± 0.002
423.04 K, 17483 kPa, Liquid | 0.06401 ± 0.00088
423.05 K, 25698 kPa, Liquid | 0.06896 ± 0.00087
423.06 K, 8781 kPa, Liquid | 0.05726 ± 0.00088
423.06 K, 8783 kPa, Liquid | 0.05728 ± 0.00068
423.07 K, 7608 kPa, Liquid | 0.05614 ± 0.0007
423.07 K, 7616 kPa, Liquid | 0.05619 ± 0.00075
423.07 K, 15379 kPa, Liquid | 0.06256 ± 0.00085
423.08 K, 15382 kPa, Liquid | 0.06257 ± 0.00085
423.1 K, 6613 kPa, Liquid | 0.05516 ± 0.001
423.11 K, 6611 kPa, Liquid | 0.05515 ± 0.001
423.11 K, 22703 kPa, Liquid | 0.06725 ± 0.0011
423.11 K, 28104 kPa, Liquid | 0.07029 ± 0.0024
423.12 K, 22728 kPa, Liquid | 0.06757 ± 0.00082
423.12 K, 28121 kPa, Liquid | 0.07049 ± 0.0008
423.14 K, 5716 kPa, Liquid | 0.05419 ± 0.0019
423.15 K, 5712 kPa, Liquid | 0.0542 ± 0.0023
423.15 K, 13390 kPa, Liquid | 0.06109 ± 0.00084
423.15 K, 13399 kPa, Liquid | 0.06114 ± 0.00072
423.2 K, 4943 kPa, Liquid | 0.05335 ± 0.003
423.2 K, 4945 kPa, Liquid | 0.0533 ± 0.0015
423.2 K, 11667 kPa, Liquid | 0.05975 ± 0.0027
423.21 K, 11671 kPa, Liquid | 0.05977 ± 0.00079
423.21 K, 20041 kPa, Liquid | 0.06545 ± 0.00085
423.21 K, 20058 kPa, Liquid | 0.06566 ± 0.00096
423.26 K, 25692 kPa, Liquid | 0.06895 ± 0.00089
423.26 K, 25702 kPa, Liquid | 0.06897 ± 0.00091
423.27 K, 10146 kPa, Liquid | 0.05849 ± 0.00098
423.28 K, 10147 kPa, Liquid | 0.05852 ± 0.00098
423.29 K, 17476 kPa, Liquid | 0.06396 ± 0.0035
423.3 K, 17478 kPa, Liquid | 0.064 ± 0.0034
423.3 K, 28106 kPa, Liquid | 0.07034 ± 0.0012
423.31 K, 28126 kPa, Liquid | 0.07033 ± 0.0038
423.32 K, 8771 kPa, Liquid | 0.05728 ± 0.0011
423.33 K, 8783 kPa, Liquid | 0.05728 ± 0.00086
423.35 K, 7611 kPa, Liquid | 0.05616 ± 0.0013
423.35 K, 7616 kPa, Liquid | 0.05621 ± 0.0013
423.35 K, 15369 kPa, Liquid | 0.06251 ± 0.00073
423.35 K, 15382 kPa, Liquid | 0.06259 ± 0.00078
423.37 K, 22716 kPa, Liquid | 0.06724 ± 0.0051
423.37 K, 22722 kPa, Liquid | 0.06728 ± 0.008
423.38 K, 6613 kPa, Liquid | 0.0552 ± 0.0011
423.38 K, 28103 kPa, Liquid | 0.07024 ± 0.0011
423.39 K, 28113 kPa, Liquid | 0.07028 ± 0.0041
423.4 K, 6606 kPa, Liquid | 0.05518 ± 0.001
423.43 K, 13394 kPa, Liquid | 0.06111 ± 0.00071
423.44 K, 5711 kPa, Liquid | 0.05425 ± 0.0016
423.44 K, 5715 kPa, Liquid | 0.05429 ± 0.0026
423.44 K, 13394 kPa, Liquid | 0.06111 ± 0.00071
423.48 K, 20043 kPa, Liquid | 0.06561 ± 0.0024
423.48 K, 20053 kPa, Liquid | 0.06564 ± 0.00096
423.49 K, 11667 kPa, Liquid | 0.05991 ± 0.0007
423.49 K, 11670 kPa, Liquid | 0.05977 ± 0.00087
423.54 K, 25699 kPa, Liquid | 0.06893 ± 0.0019
423.55 K, 25702 kPa, Liquid | 0.06894 ± 0.0019
423.56 K, 10145 kPa, Liquid | 0.05848 ± 0.00087
423.56 K, 10147 kPa, Liquid | 0.05849 ± 0.00087
423.57 K, 17456 kPa, Liquid | 0.06393 ± 0.00072
423.57 K, 17477 kPa, Liquid | 0.0642 ± 0.00093
423.6 K, 28105 kPa, Liquid | 0.07025 ± 0.00085
423.62 K, 8777 kPa, Liquid | 0.05731 ± 0.00086
423.62 K, 28121 kPa, Liquid | 0.07026 ± 0.0015
423.63 K, 8770 kPa, Liquid | 0.05731 ± 0.00072
423.63 K, 15380 kPa, Liquid | 0.06255 ± 0.001
423.64 K, 15380 kPa, Liquid | 0.06256 ± 0.001
